The source of these data is patent US20060281071A1, “Stearoyl-CoA desaturase assay” (priority 2005, published 2006).

For experiment [1], the target named is T1, mSCD3 (Mus musculus, UniProt Q99PL7, V119A).
T1 sequence (Q99PL7 1-359 V119A): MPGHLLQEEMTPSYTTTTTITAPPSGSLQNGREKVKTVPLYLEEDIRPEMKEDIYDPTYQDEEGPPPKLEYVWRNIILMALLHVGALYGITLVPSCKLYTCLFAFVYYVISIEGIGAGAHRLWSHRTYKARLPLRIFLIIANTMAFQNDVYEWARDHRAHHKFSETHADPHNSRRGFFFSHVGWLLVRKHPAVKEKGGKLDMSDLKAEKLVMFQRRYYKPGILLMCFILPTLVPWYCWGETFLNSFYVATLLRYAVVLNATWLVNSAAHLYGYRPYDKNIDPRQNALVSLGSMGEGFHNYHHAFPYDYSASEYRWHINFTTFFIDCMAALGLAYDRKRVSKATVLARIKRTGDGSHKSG
Briefly: Conversion of saturated fatty acids to Δ9 monounsaturated fatty acids in ole1 yeast L8-14C expressing mSCD3 (GLC). Type of experiment: cell-based. More on the design: Cloning of the full-length human and mouse SCD cDNAs: The full coding region of human SCDs; expressed in transfected cells; host or cells: Saccharomyces cerevisiae L8-14C (ole1 disruptant), vector p426GPD. To be noted: for conversion of exogenous saturated fatty acid to Δ9 monounsaturated fatty acid: exogenous fatty acid 0.2 mM, 1% tergitol NP-40, yeast cultured 2 days (FIG. 2).

Experiment [2] deals with T1, mSCD3. Briefly: Δ9-desaturase activity in microsomes of Hela cells over-expressing mSCD3. Type of experiment: biochemical. More on the design: Cloning of the full-length human and mouse SCD cDNAs: The full coding region of human SCDs; expressed in transfected cells. The following applies: Hela microsomes 100 μg, 14C-acyl-CoA, NADH (FIG. 3).

In the case of `CCCCCCCCCCCCC(=O)O` [13:0, tridecanoic acid], the “conversion of exogenous saturated fatty acid to Δ9 monounsaturated fatty acid” value at mSCD3 [1] is 32%. On to `CCCCCCCCCCCCCC(=O)O` [14:0, myristic acid], for which the “conversion of exogenous saturated fatty acid to Δ9 monounsaturated fatty acid” value at mSCD3 [1] is “more than 50%”. As to `CCCCCCCCCCCCCCCC(=O)SCCNC(=O)CCNC(=O)[C@H](O)C(C)(C)COP(=O)(O)OP(=O)(O)OC[C@H]1O[C@@H](n2cnc3c(N)ncnc32)[C@H](O)[C@@H]1OP(=O)(O)O` [16:0-CoA, palmitoyl-CoA], at mSCD3 [2], the “Δ9-desaturase activity towards 16:0-CoA relative to 18:0-CoA” value is 16 fold. On to `CCCCCCCCCCCCCCCC(=O)O` [16:0], for which the “% conversion of fatty acid to Δ9 monounsaturated fatty acid” value at mSCD3 [1] (endogenous fatty acid, L8-14C transformant, YPD lacking unsaturated fatty acids, 3 days) is 49%.

`CCCCCCCCCCCCCCCCC(=O)O` [17:0, heptadecanoic acid]: at mSCD3 [1], the “conversion of exogenous saturated fatty acid to Δ9 monounsaturated fatty acid” value is on record as “undetectable”.

With `CCCCCCCCCCCCCCCCCCCC(=O)O` [C20:0, eicosanoic acid], on mSCD3 [1], the “conversion of exogenous saturated fatty acid to Δ9 monounsaturated fatty acid” value is reported as “None of Δ9-desaturase was able to utilize”.
